# Laboratory results: patent US20210163489A1, “PYRAZOLOPYRIMIDINE DERIVATIVES AND THE COMPOSITIONS AND METHODS OF TREATMENT REGARDING THE SAME” (NysnoBio Ireland DAC, priority 2016, published 2021)
# Values joined by “and” are separate entries in the source; they are usually repeats but may differ in a detail not shown here. Equal entries are not always repeated.
# Target: T1, Parkin ligase (Homo sapiens, UniProt O60260)
# T1 construct: Enzyme: Parkin-His tagged 203 μM (10.5 mg/ml)
# T1 sequence (O60260 1-465): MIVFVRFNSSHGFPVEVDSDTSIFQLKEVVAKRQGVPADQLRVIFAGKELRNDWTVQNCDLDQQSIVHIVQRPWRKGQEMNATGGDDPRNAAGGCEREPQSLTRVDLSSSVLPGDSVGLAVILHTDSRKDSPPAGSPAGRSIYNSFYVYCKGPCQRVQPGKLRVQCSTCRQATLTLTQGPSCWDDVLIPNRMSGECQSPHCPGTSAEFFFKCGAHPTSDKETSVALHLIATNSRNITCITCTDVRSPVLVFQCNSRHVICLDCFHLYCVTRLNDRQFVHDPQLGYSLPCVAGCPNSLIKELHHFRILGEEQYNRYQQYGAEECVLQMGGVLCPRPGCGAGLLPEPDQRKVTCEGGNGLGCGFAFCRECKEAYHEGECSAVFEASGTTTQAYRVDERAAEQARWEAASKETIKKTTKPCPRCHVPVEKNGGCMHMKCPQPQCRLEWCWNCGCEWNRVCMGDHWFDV
# Assay: Activity-based probe assay using an ubiquitin vinyl sulfone probe (TR-FRET)
# Type: biochemical
# Conditions: activation of heat activated Parkin, HA-Ub-VS probe; read-out: Probe Assay EC50 (μM) [Example 2]
# Method: An Ubiquitin vinyl sulfone probe can be used that irreversibly binds to the active site cysteine of Parkin ligase. Covalent attachment of the probe to the Parkin can be monitored by TR-FRET. Candidate activator compounds can be identified by increasing the activity of Parkin ligase due to an increase in TR-FRET signal. Screening for activating compounds can be distinguished from the controls as follows:
# 100% activation signal=Heat activated Parkin+100 nM control activator in DMSO. 0% activation signal=Heat activated Parkin+DMSO only. Parkin activators can be identified by an increase of the 0% activation signal TR-FRET signal.
# • Assay Plate: White 384 well plate (Corning 3572) • Enzyme: Parkin-His tagged 203 μM (10.5 mg/ml) • Probe: Ubiquitin vinyl-sulfone (HA-Ub-VS Boston Biochem U-212) • DMSO: DMSO (Sigma cat # D4540-100ML) • Reaction Buffer: 50 mM HEPES (pH 8.5), 150 mM NaCl, 0.01% Tween 20, 0.1% BSA • Detection Buffer: 50 mM HEPES (pH 8.5), 150 mM NaCl, 0.01% Tween 20, 0.1% BSA, 800 mM KF • Detection Reagent A: 2.6 nM Anti-6HIS-Eu cryptate and 40 nM Anti-HA-XL665 in detection buffer • Eu cryptate: Anti-6HIS-Eu cryptate (CisBio 61HISKLA) • XL665: Anti-HA-XL665 (CisBio 610HAXLA) Enzyme Reaction (15 min Pre Incubation Parkin with Activator Only) • Parkin: 40 nM • HA-Ub-VS Probe: 70 nM • Activator/DMSO: 2× Activator/2% DMSO • Reaction time: 60 minutes • Temperature: 22° C. • Total volume: 10 μl reaction
# • Take 10 μl of Enzyme Reaction above and add 10 μl detection Reagent A under the following conditions: • Reaction time: 60 minutes • Temperature: 22° C. • Total volume: 20 μl
# Assay procedure (Using HP D-300 compound dispenser and Bravo for the operation):
# 1) Heat activate Parkin in reaction buffer (500 μl/1.5 ml tube: Eppendorf Thermomixer 5 minutes, 400 rpm at 58° C. and put on ice until needed). 2) Load assay plate wells with 4.8 μl 84.5 nM Parkin in reaction buffer by use of Bravo. 3) Deliver 0.2 μl 200× activator candidates in DMSO by use of HP D-300 compound dispenser. Highest 200× concentration=20 μm and then twofold dilutions. 4) Spin 1000 rpm, 2 minutes, at room temp. 5) Incubate plate for 15 minutes at room temp. 6) Add 5 μl 140 nM HA-Ub-VS Probe in reaction buffer by use of Bravo. 7) Spin 1000 rpm, 2 minutes, at room temp. 8) Incubate plate for 60 minutes at room temp. 9) Add 10 μl 2.6 nM Anti-6HIS-Eu cryptate and 40 nM Anti-HA-XL665 in detection buffer. 10) Spin 1000 rpm, 2 minutes, at room temp. 11) Incubate plate for 60 minutes at room temp. 12) Read plates on Perkin Elmer Envision instrument with the following parameters:
# LANCE dual laser protocol loaded into the Envision® software
# Top Mirror: LANCE/DELFIA Duel/Bias (Bar code 446) Emission Filter: APC 665 EM (Bar code 205) 2nd Emission Filter: Europium 615 EM (Bar code 203) Read […] (channel 1) and 615 nm (channel 2) wavelengths on Envision®
# Data Analysis: The Data can be read in CSV files. There are two tables in those CSV files, which are the values of 655 nm (channel 1) and 615 nm (channel 2) wavelengths respectively. The data is converted to an HTRF Ratio=(Channel 1/Channel 2)*10,000
# The average of all the 0 uM controls (DMSO only)=BKGD (Background—0% activation). Subtract BKGD from each HTRF Ratio value=HTRF-BKGD. The average of all the […] 100 nM control activator in DMSO controls=Max (100% activation). The following equation is then used to calculate % Activation for each well/candidate as follows: % Activation=(HTRF−BKGD/Max)*100.
# Graphpad Prisim was used with Transform X values: X=Log(X) and nonlinear regression (dose-response-stimulation): Log(agonist) vs Response—variable slope (four parameters) with constrains set to Bottom=0 and Top=100.
row,EC50,Compound
1,14.9 µM,"Cc1nc2c(-c3ccccc3)c(C)nn2c(S)c1Cc1ccccn1 [Compound BB, 2,5-dimethyl-3-phenyl-6-(2-pyridylmethyl)pyrazolo[1,5-a]pyrimidine-7-thiol]"
2,> 100 µM,CCCc1cc(S)n2nc(C)c(-c3ccccc3)c2n1 [Compound B]
3,6.5 µM,"Cc1nn2c(S)c(Cc3ccccc3)cnc2c1-c1ccccc1 [Compound DD, 6-benzyl-2-methyl-3-phenyl-pyrazolo[1,5-a]pyrimidin-7-thiol]"
4,51 µM,Cc1ccc(-c2cnn3c(O)cc(C)nc23)cc1 [Compound H3]
5,> 100 µM,COc1ccc(-c2cnn3c(O)cc(C)nc23)cc1 [Compound J3]
6,> 100 µM,Cc1nn2c(O)c3c(nc2c1-c1ccccc1)CCN(C)C3 [Compound K3]
7,> 100 µM,Cc1nc2c(-c3cccnc3)c(C)nn2c(O)c1Cc1ccccc1 [Compound L3]
8,96.3 µM,Cc1cc(O)n2ncc(-c3cccc(N(C)C)c3)c2n1 [Compound M3]
9,> 100 µM,Cc1nc2c(C3CCN(C)CC3)c(C)nn2c(S)c1Cc1ccccc1 [Compound N3]
10,> 100 µM,Cc1nc2c(C3CCN(C)CC3)c(C)nn2c(O)c1Cc1ccccc1 [Compound O3]
11,61.4 µM,"Cc1cc2nc(C)c(Cc3ccc(Cl)cc3)c(O)n2n1 [Compound P, 6-[(4-chlorophenyl)methyl]-2,5-dimethyl-pyrazolo[1,5-a]pyrimidin-7-ol]"
12,18.2 µM,"Cc1cc2nc(C)c(Cc3ccc(Cl)cc3)c(S)n2n1 [Compound R, 6-[(4-chlorophenyl)methyl]-2,5-dimethyl-pyrazolo[1,5-a]pyrimidine-7-thiol]"
13,> 100 µM,"Cc1nn2c(O)c(Cc3ccccc3)cnc2c1-c1ccccc1 [Compound V, 6-benzyl-2-methyl-3-phenyl-pyrazolo[1,5-a]pyrimidin-7-ol]"
14,> 100 µM,"Oc1c(Cc2ccccc2)cnc2c(-c3ccccc3)cnn12 [Compound W, 6-benzyl-3-phenyl-pyrazolo[1,5-a]pyrimidin-7-ol]"
15,> 100 µM,Cc1nn2c(S)cc(C(C)C)nc2c1-c1ccccc1 [H]
16,> 100 µM,Cc1nc2c(C(F)(F)F)c(C)nn2c(O)c1Cc1ccccc1 [JJ]
17,35.4 µM,CC(C)(C)c1cc(O)n2ncc(-c3ccccc3)c2n1 [J]
18,> 100 µM,Cc1cc(C)c2c(n1)nn1c(O)c(Cc3ccccc3)c(C)nc21 [NN]
19,> 100 µM,Cc1cc(S)n2nc(C)c(-c3ccccc3)c2n1 [O]
20,> 100 µM,Cc1cc(O)n2ncc(-c3ccc(F)cc3)c2n1 [PP]
21,27.3 µM,Cc1cc(C)c2c(n1)nn1c(S)c(Cc3ccccc3)c(C)nc21 [RR]
22,55.6 µM,Cc1nn2c(S)c3c(nc2c1-c1ccccc1)COC3 [XX]

# The next lines start with the compound.
row,Compound,EC50
1,Cc1cc(S)n2ncc(-c3cc[nH]c(=O)c3)c2n1 [Compound A3],> 100 µM
2,COc1ccc(Cn2ccc(-c3cnn4c(S)cc(C)nc34)cc2=O)cc1 [Compound B3],46 µM
3,Cc1cc(S)n2ncc(-c3ccccc3)c2n1 [Compound C],75.3 µM
4,COc1ccccc1-c1c(C)nn2c(S)cc(C)nc12 [Compound D],> 100 µM
5,"Cc1nc2c(C#N)c(C)nn2c(O)c1Cc1ccccc1 [Compound GG, 6-benzyl-7-hydroxy-2,5-dimethyl-pyrazolo-[1,5-a]pyrimidine-3-carbonitrile]",> 100 µM
6,CC(C)(C)c1cc(O)n2ncc(-c3ccc(Cl)cc3)c2n1 [Compound G],53.5 µM
7,Cc1nn2c(O)c(CC(C)C)cnc2c1-c1ccccc1 [Compound I3],> 100 µM
8,CCc1nn2c(S)cc(C)nc2c1-c1ccc(F)cc1 [Compound I],> 100 µM
9,Cc1nn2c(S)c3c(nc2c1-c1ccccc1)CCCC3 [Compound K],3.3 µM and 3.6 µM
10,Cc1ccc(-c2cnn3c(O)c4c(nc23)CN(C)CC4)cc1 [Compound P3],> 100 µM
11,"Cc1nc2c(-c3ccccc3)c(C)nn2c(O)c1Cc1ccncc1 [Compound X, 2,5-dimethyl-3-phenyl-6-(4-pyridylmethyl)pyrazolo[1,5-a]pyrimidin-7-ol]",> 100 µM
12,"Cc1nc2c(-c3ccccc3)c(C)nn2c(O)c1Cc1ccccn1 [Compound Y, 2,5-dimethyl-3-phenyl-6-(2-pyridylmethyl)pyrazolo[1,5-a]pyrimidin-7-ol]",> 100 µM
13,"Sc1c(Cc2ccccc2)cnc2c(-c3ccccc3)cnn12 [Compound Z, 6-benzyl-3-phenyl-pyrazolo[1,5-a]pyrimidin-7-thiol]",5.9 µM
14,Cc1nc2c(C(=O)N(C)C)c(C)nn2c(O)c1Cc1ccccc1 [EE],> 100 µM
15,Cc1nc2c(-c3ccccn3)c(C)nn2c(O)c1Cc1ccccc1 [FF],17.8 µM
16,Cc1nn2c(O)cc(C(C)(C)C)nc2c1-c1ccc(Cl)cc1 [F],16.7 µM
17,Cc1nc2c(-c3ccccn3)c(C)nn2c(S)c1Cc1ccccc1 [HH],74.2 µM
18,Cc1nc2c(C(=O)N(C)C)c(C)nn2c(S)c1Cc1ccccc1 [II],> 100 µM
19,Cc1nc2c(C(F)(F)F)c(C)nn2c(S)c1Cc1ccccc1 [LL],34.1 µM
20,Cc1nc2c(-c3ccncc3)c(C)nn2c(S)c1Cc1ccccc1 [MM],7.6 µM
21,Cc1cc(O)n2nc(C)c(-c3ccc(Cl)cc3)c2n1 [M],> 100 µM
22,Cc1cc(S)n2nc(C)c(-c3ccc(Cl)cc3)c2n1 [N],> 100 µM
23,Cc1nc2c(C#N)c(C)nn2c(S)c1Cc1ccccc1 [OO],> 100 µM
24,Cc1nc2c(-c3ccccc3)c(C)nn2cc1Cc1ccccc1 [QQ],> 100 µM
25,Cc1cc2nc(C)c(Cc3ccccc3)c(O)n2n1 [Q],> 100 µM
26,Cc1cc2nc(C)c(Cc3ccccc3)c(S)n2n1 [S],27.9 µM
27,Cc1nc2c(-c3ccccc3)c(C)nn2c(O)c1Cc1ccccc1 [T],49.1 µM
28,Cc1cc(S)n2ncc(-c3cnn(C)c3)c2n1 [VV],> 100 µM
29,Cc1nn2c(S)c3c(nc2c1-c1ccccc1)CCOC3 [WW],71 µM
30,CNc1c2c(nc3c(-c4ccccc4)c(C)nn13)CCN(C)C2 [YY],> 100 µM
